Source: patent US20250214925A1, “CATIONIC LIPID, LIPOSOME, LIPID NANOPARTICLE, AND USE” (CARCELL BIOPHARMA LTD., priority 2022, published 2025)

Key:
[1] = mRNA encapsulation efficiency of LNP by Ribogreen assay; type: physicochemical; settings: LNP: 50% cationic lipid, 38.5% cholesterol, 10% DSPC, 1.5% DMG-PEG2000; Ffluc mRNA
Description: (§1) 1. The cationic lipid (50 mg/mL) prepared in the above examples of the present disclosure, cholesterol (20 mg/mL), DSPC (20 mg/mL) and DMG-PEG2000 (20 mg/mL) were dissolved in ethanol, and the solution was placed in a 55° C. metal thermostatic bath as needed to aid dissolution, to obtain a lipid mixture with the following molar composition: 1.5% DMG-PEG2000, 50% cationic lipid, 38.5% cholesterol, and 10% DSPC.
(§2) 2. The mRNA encoding Ffluc was diluted with 10 mM pH 4.0 citrate buffer to prepare a 0.2 mg/mL mRNA solution.
(§3) 3. The lipid mixture prepared in step 1 was mixed with the mRNA solution prepared in step 2 using a syringe pump with a tee at a total flow rate of 40 mL/min.
(§4) 4. The LNP mixture was collected after the three-way mixing and placed in a dialysis bag with a molecular weight cut-off of 100 KDa.
(§5) 5. The LNP mixture was dialyzed overnight against 50 mM Tris-buffered saline, pH 7.4.
(§6) 6. Sieving, and subsequent measurement of the sieved LNP to measure the PDI of the LNP by dynamic laser light scattering; to measure the mRNA encapsulation efficiency and concentration by Ribogreen assay; and to measure the pKa by TNS-α assay.

mice = assay: In vivo delivery of Ffluc mRNA LNP in mice, intravenous administration, luminescence relative to MC3; set-up: species or system mice (female Balb/C); settings: fold change in luminescence intensity relative to MC3; 0.06 mg/kg tail vein; 6 h after injection
Description: The prepared encapsulation solution was applied to mice in the following manner, and its delivery efficiency in mice was tested. Among them, DLin-MC3-DMA (MC3) was a cationic liposome for delivering small nucleic acids that was approved by the FDA for marketing in 2018, which has high nucleic acid drug delivery efficiency and biosafety, and was usually used as the industry gold standard in the screening process of cationic lipids. In the evaluation of mice experiments, the ratio of nucleic acid delivery efficiency normalized to MC3 was greater than 0.1, which was considered to be a cationic lipid with high delivery efficiency.
1. The LNP solution was diluted with 50 mM TBS, pH 7.4 to a concentration of 0.1 mg/mL mRNA.
2. The mice involved in this study were female Balb/C, weighing 18-22 g, 6-8 weeks old, with 5 mice in each group.
3. The dosing solution was kept at 4° C. prior to injection.
4. Each mice received 0.06 mg/kg via tail vein injection.
5. The mice were injected intraperitoneally with 200 μL of 1.5 mg/mL D-luciferin solution 6 h after injection.
6. The in vivo luminescence images of the mice were obtained using the IVIS system (Aniview).
7. The luminescence intensity of each mice was measured using Aniview software.
8. MC3 lipid nanoparticles were used as a positive control. The in vivo efficacy of each cationic lipid tested was recorded as the fold change in luminescence intensity relative to MC3 (ratio normalized to MC3).

[2] = LNP size and PDI by dynamic laser light scattering; type: physicochemical; settings: LNP: 50% cationic lipid, 38.5% cholesterol, 10% DSPC, 1.5% DMG-PEG2000; Ffluc mRNA
Description: as §1, §2, §3, §4, §5, §6

Molecule	Encapsulation Rate [1]	In Vivo Efficacy Normalized To Mc3 In Mice (Intravenous Injection) (mice)	PDI [2]	Size (nm) [2]
CCCCC/C=C\C/C=C\CCCCCCCC(=O)OCC(COC(=O)/C=C(/CCCCCCCC)CCCCCCCCCC)COC(=O)OCC1CCN(C)C1 (centres unmarked) [CPL-343, 3-((((1-methylpyrrolidin-3-yl)methoxy)carbonyl)oxy)-2-((((Z)-3-octyltridec-2-enoyl)oxy)methyl)propyl(9Z,12Z)-octadeca-9,12-dienoate]	85%	0.44	0.1584	116.3 nm
CCCCC/C=C\C/C=C\CCCCCCCC(=O)OCC(COC(=O)/C=C(/CCCC)CCCCCC)COC(=O)OCCCN(C)C (centres unmarked) [CPL-218, 3-(((Z)-3-butylnon-2-enoyl)oxy)-2-((((3-(dimethylamino)propoxy)carbonyl)oxy)methyl)propyl(9Z,12Z)-octadeca-9,12-dienoate]	87%	0.19	0.1194	114.4 nm
CCCCC/C=C\C/C=C\CCCCCCCC(=O)OCC(COC(=O)/C=C(/CCCC)CCCCCC)COC(=O)OCCCN1CCN(C)CC1 (centres unmarked) [CPL-394, 3-(((Z)-3-butylnon-2-enoyl)oxy)-2-((((3-(4-methylpiperazin-1-y)propoxy)carbonyl)oxy)methyl)propyl(9Z,12Z)-octadeca-9,12-dienoate]	97%	0.13	0.1069	95.77 nm
CCCCC/C=C\C/C=C\CCCCCCCC(=O)OCC(COC(=O)/C=C(\CCC)CCCCCC)COC(=O)OCC1CCN(C)C1 (centres unmarked) [CPL-324, 3-((((1-methylpyrrolidin-3-yl)methoxy)carbonyl)oxy)-2-((((E)-3-propylnon-2-enoyl)oxy)methyl)propyl(9Z,12Z)-octadeca-9,12-dienoate]	95%	0.31	0.1961	99.42 nm
CCCCC/C=C\C/C=C\CCCCCCCC(=O)OCC(COC(=O)/C=C(\CCCCCCC)CCCCCCCCCC)COC(=O)OCCCN(C)C (centres unmarked) [CPL-231, 3-(((3-(dimethylamino)propoxy)carbonyl)oxy)-2-((((E)-3-heptyltridec-2-enoyl)oxy)methyl)propyl(9Z,12Z)-octadeca-9,12-dienoate]	95%	0.55	0.1118	69.42 nm
CCCCC/C=C\C/C=C\CCCCCCCC(=O)OCC(COC(=O)/C=C(\CCCCCCC)CCCCCCCC)COC(=O)OCCCN1CCCCC1 (centres unmarked) [CPL-428, 3-(((E)-3-heptylundec-2-enoyl)oxy)-2-((((3-(piperidin-1-yl)propoxy)carbonyl)oxy)methyl)propyl(9Z,12Z)-octadeca-9,12-dienoate]	96%	0.34	0.1411	73.57 nm
CCCCC/C=C\C/C=C\CCCCCCCC(=O)OCC(COC(=O)/C=C(\CCCCCCC)CCCCCCCC)COC(=O)OCCCCN(C)C (centres unmarked) [CPL-252]	98%	0.34	0.1369	86.5 nm
CCCCC/C=C\C/C=C\CCCCCCCC(=O)OCC(COC(=O)C=C(CCCCCCCCCC)CCCCCCCCCC)COC(=O)OCCCCN(C)C (centres unmarked) [CPL-256, 3-((3-decyltridec-2-enoyl)oxy)-2-((((4-(dimethylamino)butyloxy)carbonyl)oxy)methyl)propyl(9Z,12Z)-octadeca-9,12-dienoate]	95%	0.63	0.1009	83.7 nm
CCCCC/C=C\C/C=C\CCCCCCCC(=O)OCC(COC(=O)/C=C(\CCCC)CCCCC)COC(=O)OCCN(C)C (centres unmarked) [CPL-199, 3-(((E)-3-butyloct-2-enoyl)oxy)-2-((((2-(dimethylamino)ethoxy)carbonyl)oxy)methyl)propyl(9Z,12Z)-octadeca-9,12-dienoate]	96%	0.12	0.1394	86.92 nm
CCCCC/C=C\C/C=C\CCCCCCCC(=O)OCC(COC(=O)/C=C(\CCCCC)CCCCCCCC)COC(=O)OCC1CCCN(C)C1 (centres unmarked) [CPL-377, 3-((((1-methylpiperidin-3-yl)methoxy)carbonyl)oxy)-2-((((E)-3-pentylundec-2-enoyl)oxy)methyl)propyl(9Z,12Z)-octadeca-9,12-dienoate]	94%	0.45	0.1248	88.31 nm
CCCCC/C=C\C/C=C\CCCCCCCC(=O)OCC(COC(=O)/C=C(\CCCCC)CCCCCCCC)COC(=O)OCCCN(C)C (centres unmarked) [CPL-223, 3-(((3-(dimethylamino)propoxy)carbonyl)oxy)-2-((((E)-3-pentylundec-2-enoyl)oxy)methyl)propyl(9Z,12Z)-octadeca-9,12-dienoate]	98%	0.41	0.102	99.55 nm
CCCCCCCC/C(=C/C(=O)OCCCCCN(CCCCO)CCCCCOC(=O)/C=C(\CCCCCC)CCCCCCCC)CCCCCC [CPL-003, ((4-hydroxybutyl)azanediyl)bis(pentane-5,1-diyl)(2E,2′E)-bis(3-hexylundec-2-enoate)]	92%	1.55	0.205	98 nm
CCCCC/C=C\C/C=C\CCCCCCCC(=O)OCC(COC(=O)/C=C(\CCCCC)CCCCCCCCCC)COC(=O)OCCCN(C)C (centres unmarked) [CPL-224, 3-(((3-(dimethylamino)propoxy)carbonyl)oxy)-2-((((E)-3-pentyltridec-2-enoyl)oxy)methyl)propyl(9Z,12Z)-octadeca-9,12-dienoate]	94%	0.87	0.1162	90.88 nm
CCCCCC/C(=C/C(=O)OCCCCCCCCN(CCCO)CCCCCCCCOC(=O)/C=C(\CCCCC)CCCCCC)CCCCC [CPL-112, ((3-hydroxypropyl)azanediyl)bis(octane-8,1-diyl)(2E,2′E)-bis(3-pentylnon-2-enoate)]	95%	2.14	0.1173	85.04 nm
CCCCCCCCCC/C(=C/C(=O)OCCCCCN(CCCO)CCCCCOC(=O)/C=C(\CCCC)CCCCCCCCCC)CCCC [CPL-044, ((3-hydroxypropyl)azanediyl)bis(pentane-5,1-diyl)(2E,2′E)-bis(3-butyltridec-2-enoate)]	98%	1.26	0.15	78.4 nm
((3-hydroxypropyl)azanediyl)bis(butane-4,1-diyl) (2E,2′E)-bis(2-hexylidenedecanoate) [CPL-025]	97%	1.34	0.2	92.1 nm
CCCCCCCC/C(=C/C(=O)OCCCCCN(CCCO)CCCCCOC(=O)/C=C(\CCC)CCCCCCCC)CCC [CPL-039, ((3-hydroxypropyl)azanediyl)bis(pentane-5,1-diyl)(2E,2′E)-bis(3-propylundec-2-enoate)]	94%	1.44	0.2202	97.61 nm
